Experimental data: patent publication US9770452B2, “Quinoxaline derivatives as GPR6 modulators” (Takeda Pharmaceutical Company Limited, priority 2012, dated 2017)
Where a name gives a salt, the structure may show the parent alone. Read-outs that look alike come from different tables or passages of the source.

Target: T1, GPR6 receptor (Homo sapiens, UniProt P46095)
T1 construct: expressed in transfected cells
Test: Inhibition of cAMP Activity of GPR6 In Vitro Assay (CHO-K1 cells, HTRF cAMP)
Format: cell-based
Settings: inhibition of constitutive cAMP activity of GPR6 expressed in CHO-K1 cells, approximate IC50, read-out: IC50
Description: Inhibition of cAMP Activity of GPR6 In Vitro Assay
This cell based assay measures the ability of compounds to inhibit the constitutive cAMP activity of GPR6 receptor expressed in CHO-K1 cells. CHO cells were stably expressed with GPR6 receptor, whose expression is controlled by a tetracycline inducable element. The cells were cultured in medium containing F12K, 10% FBS, 1% Penn/Strep, 200 ug/mL Hygromycin. GPR6 receptor expression was induced for 20 hrs with 1 μg/ml doxycycline (sigma D9891) in growth media. After addition of doxycycline cells were plated at a density of 250-500 cells per well in half-volume black clear bottom plates (Costar) and place in an incubator (37°, 5% C(O)2) for 20 hours prior to cAMP assays.
Culture media was removed from cells and they were washed with 50 μL of Ringer's Buffer (MgCl2 0.047 mg/mL, NaH2PO4 0.18 mg/mL, Na2HPO4 0.1 mg/mL, KCl 0.34 mg/mL, NaHC(O)3 1.26 mg/mL, D-glucose 1.8 mg/mL, NaCl 7 mg/mL; pH=7.4). Compounds suspended in DMSO were diluted in Ringer's Buffer containing 0.5% fatty acid free BSA and incubated on cells for 45 min at […] and 5% C(O)2. After incubation cells were incubated for 10 min at room temp with Eu-cAMP tracer solution from a Perkin Elmer Lance HTRF UltracAMP assay kit (TRF0264). Then ULight™-anti-cAMP solution from the Lance HTRF kit was added and incubated on a shaker at room temp for 1 hour prior to HTRF detection in a BMG PolarStar Omega.
IC50 curves were generated with a four-parameter logistic equation using GraphPad Prism 5.03.

T1 sequence (P46095 whole entry): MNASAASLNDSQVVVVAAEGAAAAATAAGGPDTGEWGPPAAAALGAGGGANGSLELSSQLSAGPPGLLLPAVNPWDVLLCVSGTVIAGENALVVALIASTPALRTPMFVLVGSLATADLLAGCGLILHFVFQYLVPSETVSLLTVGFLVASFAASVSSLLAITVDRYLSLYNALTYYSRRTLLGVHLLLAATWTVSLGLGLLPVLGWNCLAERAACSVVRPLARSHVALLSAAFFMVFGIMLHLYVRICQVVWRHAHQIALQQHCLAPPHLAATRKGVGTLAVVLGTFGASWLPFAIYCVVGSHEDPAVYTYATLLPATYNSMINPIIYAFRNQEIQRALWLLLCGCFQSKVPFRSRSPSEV

| IC50 (compounds of Compound Table 2) [nM] | Molecule | IC50 (compounds of Compound Table 1) [nM] |
| --- | --- | --- |
| – | Clc1cccc(CN2CCN(c3nc4ccccc4nc3NC3CC3)CC2)c1 [Cpd 5, 3-(4-(3-chlorobenzyl)piperazin-1-yl)-N-cyclopropylquinoxalin-2-amine, 2,2,2-trifluoroacetic acid salt] | 40600 |
| – | 8-bromo-N-cyclopropyl-3-(4-(2,5-dichlorobenzyl)piperazin-1-yl)quinoxalin-2-amine, 2,2,2-trifluoroacetic acid salt [Cpd 133] | 32 |
| – | N-cyclopropyl-3-(4-(2,5-dichlorobenzyl)piperazin-1-yl)pyrido[3,4-b]pyrazin-2-amine, 2,2,2-trifluoroacetic acid salt [Cpd 134] | 1640 |
| – | N#Cc1ccc2nc(NC3CC3)c(N3CCC(C(F)c4ccc(F)cc4F)CC3)nc2c1 (stereo not drawn) [Cpd 481] | 24 |
| – | (1-(2-(cyclopropylamino)pyrido[3,4-b]pyrazin-3-yl)piperidin-4-yl)(thiophen-3-yl)methanone, 2,2,2-trifluoroacetic acid salt [Cpd 584] | 1740 |
| – | 7-chloro-N-cyclopropyl-3-(4-(2,4-difluorophenoxy)piperidin-1-yl)pyrido[3,4-b]pyrazin-2-amine, 2,2,2-trifluoroacetic acid salt [Cpd 476] | 15 |
| – | N-cyclopropyl-3-(4-((2,5-difluorophenyl)difluoromethyl)piperidin-1-yl)pyrido[3,4-b]pyrazin-2-amine [Cpd 540] | 46 |
| – | Cc1cc(C(=O)N2CCN(c3nc4ccccc4nc3NC3CC3)CC2)no1 [Cpd 98, (4-(3-(cyclopropylamino)quinoxalin-2-yl)piperazin-1-yl)(5-methylisoxazol-3-yl)methanone] | 3210 |
| – | 3-(4-((4-bromo-2-fluorophenyl)sulfonyl)piperazin-1-yl)-2-(cyclopropylamino)quinoxaline-6-carbonitrile, 2,2,2-trifluoroacetic acid salt [Cpd 285] | 1360 |
| – | 3-(4-(2,4-difluorobenzyl)piperidin-1-yl)-2-(isopropylamino)quinoxaline-6-carbonitrile [Cpd 461] | 20 |
| – | (1-(2-(cyclopropylamino)pyrido[3,4-b]pyrazin-3-yl)piperidin-4-yl)(2-(methylthio)phenyl)methanone, 2,2,2-trifluoroacetic acid salt [Cpd 581] | 6 |
| – | N-cyclopropyl-3-(4-(4-fluorobenzyl)piperidin-1-yl)pyrido[3,4-b]pyrazin-2-amine, 2,2,2-trifluoroacetic acid salt [Cpd 421] | 8390 |
| – | 3-(4-(2,5-dichlorobenzyl)piperazin-1-yl)-N-(pyrimidin-4-yl)quinoxalin-2-amine, 2,2,2-trifluoroacetic acid salt [Cpd 174] | 1670 |
| – | 2-(cyclopropylamino)-3-(4-(m-tolylsulfonyl)piperazin-1-yl)quinoxaline-6-carbonitrile [Cpd 239] | 4740 |
| – | 3-(4-((4-(tert-butyl)phenyl)sulfonyl)piperazin-1-yl)-2-(cyclopropylamino)quinoxaline-6-carbonitrile, 2,2,2-trifluoroacetic acid salt [Cpd 280] | 450 |
| – | 2-(cyclopropylamino)-3-(4-(2,4-difluorobenzyl)piperazin-1-yl)pyrido[3,4-b]pyrazine-5-carbonitrile, 2,2,2-trifluoroacetic acid salt [Cpd 612] | 114 |
| – | c1ccc2nc(N3CCN(Cc4coc5ccccc45)CC3)c(NC3CC3)nc2c1 [Cpd 100, 3-(4-(benzofuran-3-ylmethyl)piperazin-1-yl)-N-cyclopropylquinoxalin-2-amine] | 3960 |
| – | CC(C)CCNc1nc2ccccc2nc1N1CCN(Cc2cc(Cl)ccc2Cl)CC1 [Cpd 115, 3-(4-(2,5-dichlorobenzyl)piperazin-1-yl)-N-isopentylquinoxalin-2-amine, 2,2,2-trifluoroacetic acid salt] | 3980 |
| – | 2-(cyclopropylamino)-3-(4-(2,4-difluorophenoxy)piperidin-1-yl)-N,N-dimethylpyrido[3,4-b]pyrazine-7-carboxamide [Cpd 597] | 89 |
| – | 3-(4-(2,5-dichlorobenzyl)piperazin-1-yl)-N-(pyridin-4-yl)quinoxalin-2-amine, 2,2,2-trifluoroacetic acid salt [Cpd 214] | 1470 |

| IC50 (compounds of Compound Table 2) [nM] | Molecule | IC50 (compounds of Compound Table 1) [nM] |
| --- | --- | --- |
| – | 4-((1-(3-(cyclopropylamino)pyrazino[2,3-d]pyridazin-2-yl)piperidin-4-yl)oxy)-3-fluorophenol [Cpd 623] | 39 |
| – | (S)-(2-(cyclopropylamino)-3-(4-((2,4-difluorophenyl)fluoromethyl)piperidin-1-yl)pyrido[3,4-b]pyrazin-7-yl)(morpholino)methanone, 2,2,2-trifluoroacetic acid salt [Cpd 579] | 10 |
| – | (4-chlorophenyl)(4-(2-(cyclopropylamino)pyrido[3,4-b]pyrazin-3-yl)piperazin-1-yl)methanone [Cpd 263] | 120 |
| – | 2-(cyclopropylamino)-3-(4-(2-fluoro-4-methoxybenzyl)piperazin-1-yl)pyrido[3,4-b]pyrazine-5-carbonitrile, 2,2,2-trifluoroacetic acid salt [Cpd 613] | 92 |
| – | (R)-(2-(cyclopropylamino)-3-(4-((2,4-difluorophenyl)fluoromethyl)piperidin-1-yl)pyrido[3,4-b]pyrazin-7-yl)(morpholino)methanone, 2,2,2-trifluoroacetic acid salt [Cpd 580] | 8 |
| – | 4-((1-(2-(cyclopropylamino)pyrido[3,4-b]pyrazin-3-yl)piperidin-4-yl)oxy)-3-fluorophenol, 2,2,2-trifluoroacetic acid salt [Cpd 615] | 88 |
| – | 3-(4-((5-chloro-2-fluorophenyl)difluoromethyl)piperidin-1-yl)-N-cyclopropylpyrido[3,4-b]pyrazin-2-amine [Cpd 539] | 770 |
| – | N-cyclobutyl-2-(4-(2,4-difluorophenoxy)piperidin-1-yl)pyrido[3,4-b]pyrazin-3-amine [Cpd 657] | 8 |
| – | CC(C)Nc1nc2cnncc2nc1N1CCC(Oc2ccc(F)cc2F)CC1 [Cpd 633, 3-(4-(2,4-difluorophenoxy)piperidin-1-yl)-N-isopropylpyrazino[2,3-d]pyridazin-2-amine, 2,2,2-trifluoroacetic acid salt] | 4 |
| – | CC(C)Nc1nc2cnncc2nc1N1CCC(Oc2ccc(Cl)cc2F)CC1 [Cpd 644, 3-(4-(4-chloro-2-fluorophenoxy)piperidin-1-yl)-N-isopropylpyrazino[2,3-d]pyridazin-2-amine, 2,2,2-trifluoroacetic acid salt] | 7 |
| – | azetidin-1-yl(2-(cyclopropylamino)-3-(4-(2-fluoro-4-methoxyphenoxy)piperidin-1-yl)pyrido[3,4-b]pyrazin-5-yl)methanone, 2,2,2-trifluoroacetic acid salt [Cpd 610] | 1570 |
| – | (R)-3-(4-((2,4-difluorophenyl)fluoromethyl)piperidin-1-yl)-N-isopropylpyrazino[2,3-d]pyridazin-2-amine, 2,2,2-trifluoroacetic acid salt [Cpd 640] | 72 |
| – | 3-(4-(2,5-difluorobenzyl)piperazin-1-yl)-2-((3,3,3-trifluoropropyl)amino)quinoxaline-6-carbonitrile, 2,2,2-trifluoroacetic acid salt [Cpd 400] | 390 |
| – | Cc1cccc(CN2CCN(c3nc4ccccc4nc3NC3CC3)CC2)c1 [Cpd 1, N-cyclopropyl-3-(4-(3-methylbenzyl)piperazin-1-yl)quinoxalin-2-amine, 2,2,2-trifluoroacetic acid salt] | 17700 |
| – | 3-(cyclopropylamino)-2-(4-((2,5-difluorophenyl)fluoromethyl)piperidin-1-yl)quinoxaline-6-carbonitrile, 2,2,2-trifluoroacetic acid salt [Cpd 484] | 29 |
| – | (S)-3-(cyclopropylamino)-2-(4-((2,4-difluorophenyl)fluoromethyl)piperidin-1-yl)pyrido[3,4-b]pyrazine-7-carbonitrile [Cpd 550] | 17 |
| – | O=S(=O)(c1ccccc1)N1CCN(c2nc3ccccc3nc2NC2CC2)CC1 [Cpd 105, N-cyclopropyl-3-(4-(phenylsulfonyl)piperazin-1-yl)quinoxalin-2-amine] | 5660 |
| – | 3-(4-(2,4-difluorobenzyl)piperidin-1-yl)-2-((2-methoxyethyl)amino)quinoxaline-6-carbonitrile [Cpd 518] | 24 |
| 840 | N#Cc1ccc2nc(NC3CC3)c(C3CCN(Cc4cc(Cl)ccc4Cl)CC3)nc2c1 [Compound Table 2: Cpd 3, 2-(cyclopropylamino)-3-(1-(2,5-dichlorobenzyl)piperidin-4-yl)quinoxaline-6-carbonitrile, 2,2,2-trifluoroacetic acid salt] | – |
